Results on five compounds are retold here after patent US10758531B2, “Regimens and compositions for treating HIV infections and AIDS” (ViiV Healthcare Company, priority 2016, dated 2020).

Data set [1] in a line: Drug-drug interactions: effect on concentration on co-administration (Table 1).
In the next data set the target is T1, UGT1A3 (Homo sapiens, UniProt P35503).
T1 sequence (P35503 29-534): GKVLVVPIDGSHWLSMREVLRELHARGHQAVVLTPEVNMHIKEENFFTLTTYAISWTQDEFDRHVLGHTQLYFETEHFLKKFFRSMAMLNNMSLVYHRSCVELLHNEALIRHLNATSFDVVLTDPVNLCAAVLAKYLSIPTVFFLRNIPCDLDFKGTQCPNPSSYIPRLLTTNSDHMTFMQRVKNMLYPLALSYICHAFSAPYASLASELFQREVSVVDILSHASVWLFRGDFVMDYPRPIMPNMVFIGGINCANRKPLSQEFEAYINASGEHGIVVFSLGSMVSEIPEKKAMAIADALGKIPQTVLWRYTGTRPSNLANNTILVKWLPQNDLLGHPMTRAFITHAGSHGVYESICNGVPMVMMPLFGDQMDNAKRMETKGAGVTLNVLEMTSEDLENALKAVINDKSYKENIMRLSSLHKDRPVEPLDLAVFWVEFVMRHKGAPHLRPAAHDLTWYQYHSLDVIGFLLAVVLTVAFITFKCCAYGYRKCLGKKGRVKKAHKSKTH
Conditions: in vitro; cited from earlier work.

Another data set has as its target CYP3A4 (Homo sapiens, UniProt P08684). Conditions: cited from earlier work.
Another data set deals with T2, BCRP (Homo sapiens, UniProt Q9UNQ0).
T2 sequence (Q9UNQ0 1-655): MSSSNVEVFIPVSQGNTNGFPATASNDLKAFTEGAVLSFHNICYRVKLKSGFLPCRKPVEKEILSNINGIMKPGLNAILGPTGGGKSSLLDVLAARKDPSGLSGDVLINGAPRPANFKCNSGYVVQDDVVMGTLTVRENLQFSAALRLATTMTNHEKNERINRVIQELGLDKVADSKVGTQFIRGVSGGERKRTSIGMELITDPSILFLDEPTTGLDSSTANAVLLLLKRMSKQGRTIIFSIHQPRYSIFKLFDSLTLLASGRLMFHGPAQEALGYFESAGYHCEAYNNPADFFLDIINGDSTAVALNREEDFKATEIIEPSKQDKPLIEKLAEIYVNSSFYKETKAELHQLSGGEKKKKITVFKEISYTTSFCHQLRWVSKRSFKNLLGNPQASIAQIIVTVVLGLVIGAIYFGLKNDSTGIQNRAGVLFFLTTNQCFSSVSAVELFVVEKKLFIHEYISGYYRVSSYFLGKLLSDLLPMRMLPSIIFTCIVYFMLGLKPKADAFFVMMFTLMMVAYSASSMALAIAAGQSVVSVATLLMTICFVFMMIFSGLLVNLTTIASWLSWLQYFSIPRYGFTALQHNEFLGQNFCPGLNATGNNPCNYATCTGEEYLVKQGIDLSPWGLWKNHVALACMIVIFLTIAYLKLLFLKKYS
The settings on record: in vitro; cited from earlier work.

The target of a further data set is T3, UGT1A9 (Homo sapiens, UniProt O60656).
T3 sequence (O60656 26-530): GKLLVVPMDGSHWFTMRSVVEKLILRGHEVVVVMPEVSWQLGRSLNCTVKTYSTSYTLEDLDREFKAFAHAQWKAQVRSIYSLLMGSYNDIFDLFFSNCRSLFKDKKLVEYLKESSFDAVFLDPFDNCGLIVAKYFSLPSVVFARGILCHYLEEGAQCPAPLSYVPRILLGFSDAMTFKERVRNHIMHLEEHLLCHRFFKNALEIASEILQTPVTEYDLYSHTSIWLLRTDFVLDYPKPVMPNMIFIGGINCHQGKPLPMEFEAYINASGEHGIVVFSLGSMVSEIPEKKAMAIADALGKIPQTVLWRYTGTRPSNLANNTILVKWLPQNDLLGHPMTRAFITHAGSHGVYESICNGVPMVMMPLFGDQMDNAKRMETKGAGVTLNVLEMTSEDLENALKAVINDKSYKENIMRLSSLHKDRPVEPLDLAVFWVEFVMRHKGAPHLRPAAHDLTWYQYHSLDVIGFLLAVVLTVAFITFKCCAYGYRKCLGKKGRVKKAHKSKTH
The settings on record: in vitro; cited from earlier work.

The next data set addresses T4, UGT1A1 (Homo sapiens, UniProt P22309).
T4 sequence (P22309 26-533): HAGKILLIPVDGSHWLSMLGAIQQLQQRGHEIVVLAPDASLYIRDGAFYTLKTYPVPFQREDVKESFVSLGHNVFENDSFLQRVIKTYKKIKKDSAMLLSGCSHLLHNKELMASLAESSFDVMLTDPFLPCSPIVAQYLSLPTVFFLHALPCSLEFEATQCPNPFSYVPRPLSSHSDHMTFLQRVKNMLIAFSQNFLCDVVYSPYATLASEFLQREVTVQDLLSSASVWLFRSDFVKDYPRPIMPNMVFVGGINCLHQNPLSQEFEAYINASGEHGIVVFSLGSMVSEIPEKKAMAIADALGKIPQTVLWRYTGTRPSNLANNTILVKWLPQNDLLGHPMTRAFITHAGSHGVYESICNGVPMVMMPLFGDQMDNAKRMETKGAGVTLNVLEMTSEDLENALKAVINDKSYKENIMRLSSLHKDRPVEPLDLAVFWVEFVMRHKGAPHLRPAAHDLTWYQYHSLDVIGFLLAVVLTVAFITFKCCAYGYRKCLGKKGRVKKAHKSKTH
Conditions: cited from earlier work.

A further data set deals with P-gp (Homo sapiens, UniProt P08183). Conditions: in vitro; cited from earlier work.
The test system of another data set is CYP3A. The settings on record: cited from earlier work.
A further data set relates to CYP enzymes. Conditions: rilpivirine 25 mg once daily; cited from earlier work.
The target of data set [2] is human cellular DNA polymerase β (Homo sapiens, UniProt P06746). The settings on record: cited from earlier work.
Data set [3] addresses T5, human cellular DNA polymerase γ (Homo sapiens, UniProt P54098).
T5 sequence (P54098 1-1239): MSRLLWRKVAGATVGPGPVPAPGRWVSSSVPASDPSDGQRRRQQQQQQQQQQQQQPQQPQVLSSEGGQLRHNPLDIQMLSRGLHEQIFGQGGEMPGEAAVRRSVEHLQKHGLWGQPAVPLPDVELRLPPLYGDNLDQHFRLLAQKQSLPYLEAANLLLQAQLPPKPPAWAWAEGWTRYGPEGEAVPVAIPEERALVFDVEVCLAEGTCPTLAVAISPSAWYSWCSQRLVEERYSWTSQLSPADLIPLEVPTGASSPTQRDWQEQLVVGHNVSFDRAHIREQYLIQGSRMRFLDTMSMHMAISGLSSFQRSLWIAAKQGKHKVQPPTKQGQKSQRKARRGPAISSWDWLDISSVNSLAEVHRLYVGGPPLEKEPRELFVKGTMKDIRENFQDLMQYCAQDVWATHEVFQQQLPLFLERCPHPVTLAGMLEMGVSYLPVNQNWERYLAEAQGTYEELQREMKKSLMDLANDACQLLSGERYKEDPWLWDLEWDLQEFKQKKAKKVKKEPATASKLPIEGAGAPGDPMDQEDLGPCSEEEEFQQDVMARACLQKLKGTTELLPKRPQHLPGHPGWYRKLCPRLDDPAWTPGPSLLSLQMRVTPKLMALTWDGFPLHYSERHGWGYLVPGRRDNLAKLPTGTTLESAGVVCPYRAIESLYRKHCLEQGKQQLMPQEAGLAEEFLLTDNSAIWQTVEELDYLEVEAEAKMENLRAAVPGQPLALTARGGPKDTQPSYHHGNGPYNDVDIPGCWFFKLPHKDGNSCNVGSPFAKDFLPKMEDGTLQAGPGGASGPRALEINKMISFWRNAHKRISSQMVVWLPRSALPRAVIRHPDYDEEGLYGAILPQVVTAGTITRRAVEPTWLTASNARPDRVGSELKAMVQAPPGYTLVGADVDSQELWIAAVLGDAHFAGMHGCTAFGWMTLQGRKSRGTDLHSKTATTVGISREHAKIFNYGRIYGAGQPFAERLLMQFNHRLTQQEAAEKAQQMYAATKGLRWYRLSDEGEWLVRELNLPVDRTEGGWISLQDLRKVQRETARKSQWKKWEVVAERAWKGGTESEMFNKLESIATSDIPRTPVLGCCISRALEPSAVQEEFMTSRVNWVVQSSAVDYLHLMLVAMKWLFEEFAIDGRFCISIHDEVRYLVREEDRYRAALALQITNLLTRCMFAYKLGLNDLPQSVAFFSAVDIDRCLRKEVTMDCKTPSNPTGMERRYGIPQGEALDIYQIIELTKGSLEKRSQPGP
Conditions: cited from earlier work.

The target of data set [4] is T6, human cellular DNA polymerase α (Homo sapiens, UniProt P09884).
T6 sequence (P09884 1-1462): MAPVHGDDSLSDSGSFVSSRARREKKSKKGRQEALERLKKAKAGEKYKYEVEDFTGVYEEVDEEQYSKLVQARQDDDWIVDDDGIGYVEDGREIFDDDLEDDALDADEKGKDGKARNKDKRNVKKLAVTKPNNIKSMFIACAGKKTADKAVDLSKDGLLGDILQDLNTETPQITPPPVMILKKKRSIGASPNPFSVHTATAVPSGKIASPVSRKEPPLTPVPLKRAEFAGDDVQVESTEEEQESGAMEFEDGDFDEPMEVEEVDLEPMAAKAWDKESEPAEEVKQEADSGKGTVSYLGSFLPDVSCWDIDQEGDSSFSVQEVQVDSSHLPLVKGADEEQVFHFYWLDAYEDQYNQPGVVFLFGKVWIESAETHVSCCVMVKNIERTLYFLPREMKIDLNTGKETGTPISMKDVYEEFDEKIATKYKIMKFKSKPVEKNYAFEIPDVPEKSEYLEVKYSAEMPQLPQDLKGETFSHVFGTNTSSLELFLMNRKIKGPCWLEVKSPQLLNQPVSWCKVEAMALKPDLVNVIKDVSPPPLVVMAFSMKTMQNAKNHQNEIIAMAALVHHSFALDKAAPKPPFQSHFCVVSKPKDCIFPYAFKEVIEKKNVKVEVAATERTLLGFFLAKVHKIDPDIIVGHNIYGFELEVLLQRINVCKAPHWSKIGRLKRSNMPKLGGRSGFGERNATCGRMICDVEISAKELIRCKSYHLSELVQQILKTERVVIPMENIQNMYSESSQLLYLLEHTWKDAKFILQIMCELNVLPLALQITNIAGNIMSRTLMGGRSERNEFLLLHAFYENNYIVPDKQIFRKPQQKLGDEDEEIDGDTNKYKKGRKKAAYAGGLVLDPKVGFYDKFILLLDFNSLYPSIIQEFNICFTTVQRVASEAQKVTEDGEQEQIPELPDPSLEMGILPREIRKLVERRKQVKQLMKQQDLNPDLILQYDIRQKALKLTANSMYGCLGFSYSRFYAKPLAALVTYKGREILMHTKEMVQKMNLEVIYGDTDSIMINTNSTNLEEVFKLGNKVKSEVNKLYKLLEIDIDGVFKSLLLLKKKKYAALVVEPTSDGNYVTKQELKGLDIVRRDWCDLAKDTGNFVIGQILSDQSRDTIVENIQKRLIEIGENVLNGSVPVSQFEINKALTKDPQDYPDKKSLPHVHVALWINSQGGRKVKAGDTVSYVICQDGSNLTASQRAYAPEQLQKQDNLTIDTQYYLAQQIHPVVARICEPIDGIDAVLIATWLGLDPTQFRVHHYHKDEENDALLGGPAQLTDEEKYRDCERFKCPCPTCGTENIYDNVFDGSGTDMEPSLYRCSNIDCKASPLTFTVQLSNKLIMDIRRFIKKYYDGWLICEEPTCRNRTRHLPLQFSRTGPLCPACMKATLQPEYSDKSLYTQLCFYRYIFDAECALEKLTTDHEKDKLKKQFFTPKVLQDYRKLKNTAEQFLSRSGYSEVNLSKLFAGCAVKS
Conditions: cited from earlier work.

CYP3A4, sequence (P08684 whole entry): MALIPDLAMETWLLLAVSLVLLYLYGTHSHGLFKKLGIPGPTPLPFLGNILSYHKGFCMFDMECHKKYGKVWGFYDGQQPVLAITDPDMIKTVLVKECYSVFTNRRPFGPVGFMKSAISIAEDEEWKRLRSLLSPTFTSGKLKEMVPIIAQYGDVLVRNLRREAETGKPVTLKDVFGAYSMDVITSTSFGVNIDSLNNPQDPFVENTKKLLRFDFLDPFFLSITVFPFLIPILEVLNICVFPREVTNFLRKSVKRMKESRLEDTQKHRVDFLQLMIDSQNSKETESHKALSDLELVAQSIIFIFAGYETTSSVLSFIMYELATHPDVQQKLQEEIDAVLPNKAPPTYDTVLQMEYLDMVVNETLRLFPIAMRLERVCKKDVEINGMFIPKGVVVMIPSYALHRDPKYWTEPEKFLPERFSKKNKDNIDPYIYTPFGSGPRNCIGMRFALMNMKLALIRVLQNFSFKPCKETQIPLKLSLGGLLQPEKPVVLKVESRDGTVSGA
P-gp, sequence (P08183 whole entry): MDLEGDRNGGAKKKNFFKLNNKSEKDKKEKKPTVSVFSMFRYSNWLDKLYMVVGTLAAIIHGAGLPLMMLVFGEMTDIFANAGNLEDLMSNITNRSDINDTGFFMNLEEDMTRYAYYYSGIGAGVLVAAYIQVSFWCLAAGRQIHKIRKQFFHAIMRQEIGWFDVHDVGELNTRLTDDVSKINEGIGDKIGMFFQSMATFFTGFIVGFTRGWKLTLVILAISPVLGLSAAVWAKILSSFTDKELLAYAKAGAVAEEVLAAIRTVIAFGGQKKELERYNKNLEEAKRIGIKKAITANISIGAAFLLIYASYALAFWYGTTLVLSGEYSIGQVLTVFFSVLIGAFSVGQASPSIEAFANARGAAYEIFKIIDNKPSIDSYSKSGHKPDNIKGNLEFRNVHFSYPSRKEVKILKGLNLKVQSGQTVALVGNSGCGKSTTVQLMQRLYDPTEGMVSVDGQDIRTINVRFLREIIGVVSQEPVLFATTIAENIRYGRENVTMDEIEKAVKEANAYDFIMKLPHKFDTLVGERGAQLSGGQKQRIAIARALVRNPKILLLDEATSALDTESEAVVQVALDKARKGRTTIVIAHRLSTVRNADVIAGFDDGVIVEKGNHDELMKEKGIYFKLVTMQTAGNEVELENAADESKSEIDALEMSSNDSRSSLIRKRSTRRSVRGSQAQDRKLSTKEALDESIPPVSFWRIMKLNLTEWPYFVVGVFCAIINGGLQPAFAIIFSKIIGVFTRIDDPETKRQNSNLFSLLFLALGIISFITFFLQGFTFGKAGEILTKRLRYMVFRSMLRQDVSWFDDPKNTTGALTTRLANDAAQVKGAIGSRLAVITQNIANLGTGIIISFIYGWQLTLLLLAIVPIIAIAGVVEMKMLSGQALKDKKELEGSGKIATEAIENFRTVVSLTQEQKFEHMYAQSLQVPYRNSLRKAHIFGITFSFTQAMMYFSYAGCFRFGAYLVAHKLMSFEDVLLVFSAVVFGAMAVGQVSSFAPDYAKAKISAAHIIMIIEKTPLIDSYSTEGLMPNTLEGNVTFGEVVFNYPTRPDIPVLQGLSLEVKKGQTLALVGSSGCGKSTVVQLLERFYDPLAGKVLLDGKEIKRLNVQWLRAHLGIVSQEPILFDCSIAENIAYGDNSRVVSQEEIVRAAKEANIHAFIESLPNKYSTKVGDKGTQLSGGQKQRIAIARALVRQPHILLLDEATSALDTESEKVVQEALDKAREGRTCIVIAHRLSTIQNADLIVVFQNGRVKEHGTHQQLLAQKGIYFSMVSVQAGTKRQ

Take `CCC(=O)C(CC(C)N(C)C)(c1ccccc1)c1ccccc1` (centres unmarked) [Methadone]: the “Effect on Concentration” value in data set [1] (concomitant use of methadone and a composition of the invention) is listed as “↔Methadone”.

With `O=C(NCc1c(F)cc(F)cc1F)c1cn2c(c(O)c1=O)C(=O)N1[C@H]3CC[C@H](C3)O[C@@H]1C2` [Bictegravir, (2R,5S,13aR)-8-hidroxi-7,9-dioxo-N-[(2,4,6-trifluorofenil)metil]-2,3,4,5,7,9,13,13a-octahidro-2,5-metanopirido [1′,2′:4,5]pirazino[2,1-b][1,3]oxazepina-10-carboxamida], the “Substrate of UGT1A3” value on UGT1A3 is on record as “substrate”. Moreover, the “Metabolic clearance through CYP3A4” value at CYP3A4 is listed as “metabolically cleared”. Further, the “Substrate of BCRP” value on BCRP is given as “substrate”. The “Substrate of UGT1A9” value on UGT1A9 is on record as “substrate”. In addition, the “Metabolic clearance through UGT1A1” value at UGT1A1 was “metabolically cleared”. Further, the “Substrate of P-gp” value at P-gp was “substrate”.

Take `Cc1cc(/C=C/C#N)cc(C)c1Nc1ccnc(Nc2ccc(C#N)cc2)n1` [Rilpivirine, 4-[[4-[[4-[(E)-2-cyanoethenyl]-2,6-dimethylphenyl]amino]-2-pyrimidinyl]amino]benzonitrile]: the “Metabolism by CYP3A” value with CYP3A is reported as “primarily metabolized”. For the same compound, the “Effect on the exposure of medicinal products metabolized by CYP enzymes” value in the data set on CYP enzymes is listed as “not likely to have a clinically relevant effect”. The “Inhibition of human cellular DNA polymerase β” value in [2] is “does not inhibit”. Further, the “Inhibition of human cellular DNA polymerase γ” value in [3] is “does not inhibit”. Besides, the “Inhibition of human cellular DNA polymerase α” value in data set [4] is recorded as “does not inhibit”.

For the compound `CN(C)C(=N)N=C(N)N` [Metformin], the “Effect on Concentration” value in [1] (concomitant use of metformin and a composition of the invention) was “↑Metformin”.

For `CO[C@H]1/C=C/O[C@@]2(C)Oc3c(C)c(O)c4c(c3C2=O)C2=NC3(CCN(CC(C)C)CC3)NC2=C(NC(=O)/C(C)=C\C=C\[C@H](C)[C@H](O)[C@@H](C)[C@@H](O)[C@@H](C)[C@H](OC(C)=O)[C@@H]1C)C4=O` [Rifabutin], in data set [1] (concomitant use of rifabutin and a composition of the invention), the “Effect on Concentration” value is listed as “↔Rifabutin”.
